Reference: publication PMC2765124 (Drug and alcohol dependence, 2009)
“Also recorded” adds a separate entry of the source.

Legend:
[1] = test system: locomotor activity of male ICR mice; assay: spontaneous locomotor activity; format: in vivo, mouse; conditions: for % Time Immobile / Total Distance Traveled: 60 min before, 20 min, mean ± SEM
[2] = test system: acetic acid-induced abdominal stretching in male ICR mice; assay: acetic acid stretching test; format: in vivo, mouse; conditions: for antinociceptive effect given alone (abdominal stretching): 1 h before acetic acid; for effect on abdominal stretching given alone: 3 mg/kg i.p.; for blockade of the antinociceptive effects of Δ9-THC: antagonist 3 mg/kg i.p. 10 min before Δ9-THC 3 mg/kg s.c.; for blockade of the antinociceptive effects of Δ9-THC by THCV: THCV 50 mg/kg s.c. with Δ9-THC 3.0 mg/kg s.c.
CB1 receptor = CB1 receptor (Rattus norvegicus, UniProt P20272); assay: cannabinoid receptor binding, displacement of [3H]-CP-55,940 from whole brain
CB1 receptor, sequence (P20272 whole entry): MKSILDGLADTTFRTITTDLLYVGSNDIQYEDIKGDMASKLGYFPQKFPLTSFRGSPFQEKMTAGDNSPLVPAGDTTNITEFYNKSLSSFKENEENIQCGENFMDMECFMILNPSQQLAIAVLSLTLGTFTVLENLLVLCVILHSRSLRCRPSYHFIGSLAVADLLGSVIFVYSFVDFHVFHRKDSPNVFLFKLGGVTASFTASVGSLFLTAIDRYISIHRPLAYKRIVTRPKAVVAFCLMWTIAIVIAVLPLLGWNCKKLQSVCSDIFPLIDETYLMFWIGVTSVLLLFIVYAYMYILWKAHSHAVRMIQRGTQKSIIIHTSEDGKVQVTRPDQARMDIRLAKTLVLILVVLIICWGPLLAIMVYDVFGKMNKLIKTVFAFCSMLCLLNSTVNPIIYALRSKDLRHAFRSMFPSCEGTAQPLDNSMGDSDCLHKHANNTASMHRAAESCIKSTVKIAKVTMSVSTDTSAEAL

Molecule: CCCCCc1cc(O)c2c(c1)OC(C)(C)c1ccc(C)cc1-2 [CBN, cannabinol]
- effect on locomotor activity ([1]; 50 mg/kg s.c., 60 min before recording): failed to inhibit locomotor activity; also recorded: did not affect mobility
- % Time Immobile ([1]; 50.0 mg/kg s.c.): 17.6 ± 2.9%
- Total Distance Traveled ([1]; 50.0 mg/kg s.c.): 39.02 ± 7.75 m
- antinociceptive effect given alone (abdominal stretching) ([2]; 20 mg/kg s.c.): not at 20 mg/kg
- antinociceptive effect given alone (abdominal stretching) ([2]; 50 mg/kg s.c.): significant antinociceptive effects; also recorded: significantly suppressed the stretching response
- minimal (required) dose that produced antinociception ([2]; s.c.): 50 mg/kg
- affinity at the CB1 receptor, fold lower than the affinity of Δ9-THC (CB1 receptor): 2–3 fold

Molecule: CCCCCc1cc(O)c2c(c1)OC(C)(CCC=C(C)C)C=C2 (centres unmarked) [CBC, cannabichromene]
- antinociceptive effect given alone (abdominal stretching) ([2]; high doses, s.c.): did not produce antinociceptive effects

Molecule: CCCCCc1cc(O)c2c(c1)OC(C)(C)[C@@H]1CCC(C)=C[C@@H]21 [Δ^9-THC, Δ^9-tetrahydrocannabinol]
- % Time Immobile ([1]; 1.0 mg/kg s.c.): 11.2 ± 2.2%
- Total Distance Traveled ([1]; 1.0 mg/kg s.c.): 41.79 ± 2.63 m
- % Time Immobile ([1]; 3.0 mg/kg s.c.): 21.5 ± 5.0%
- Total Distance Traveled ([1]; 3.0 mg/kg s.c.): 43.59 ± 4.70 m
- effect on locomotor activity ([1]; 3 mg/kg s.c., 60 min pretreatment, compared to vehicle): did not significantly interfere with locomotor activity
- % Time Immobile ([1]; 10.0 mg/kg s.c.): 37.6 ± 9.2%
- Total Distance Traveled ([1]; 10.0 mg/kg s.c.): 45.86 ± 7.76 m
- % Time Immobile ([1]; 50.0 mg/kg s.c.): 49.0 ± 6.8 %
- Total Distance Traveled ([1]; 50.0 mg/kg s.c.): 35.34 ± 3.61 m
- effect on mobility ([1]; doses less than 50 mg/kg s.c.): did not impair mobility
- ED50 ([2]; Mus musculus, read-out: ED50, suppression of abdominal stretching): 1.1 mg/kg
- minimal (required) dose that produced antinociception ([2]; s.c.): 1 mg/kg

Molecule: Cc1c(C(=O)NN2CCCCC2)nn(-c2ccc(Cl)cc2Cl)c1-c1ccc(Cl)cc1 [rimonabant]
- effect on abdominal stretching given alone [2]: did not significantly affect abdominal stretching behavior; also recorded: Neither
- blockade of the antinociceptive effects of CBN ([2]; antagonist 3 mg/kg i.p. 10 min before CBN 50 mg/kg s.c.): blocked by rimonabant; also recorded: significantly blocked the antinociceptive effects
- blockade of the antinociceptive effects of Δ9-THC [2]: blocked the antinociceptive effects
- blockade of the antinociceptive effects of Δ9-THC ([2]; listed as Rimonabant): significantly blocked

Molecule: C=C(C)[C@@H]1CCC(C)=C[C@H]1c1c(O)cc(CCCCC)cc1O [CBD, cannabidiol]
- antinociceptive effect given alone (abdominal stretching) ([2]; high doses, s.c.): did not produce antinociceptive effects

Molecule: SR144528
- effect on abdominal stretching given alone [2]: did not significantly affect abdominal stretching behavior; also recorded: Neither

Molecule: CCCc1cc(O)c2c(c1)OC(C)(C)[C@@H]1CC=C(C)C[C@@H]21 [THCV, Δ^8-tetrahydrocannabivarin]
- antinociceptive effect given alone (abdominal stretching) ([2]; 50 mg/kg s.c.): had no affect on the frequency of stretching behavior; also recorded: failed to elicit antinociceptive effects; also recorded: had no effects on its own
- blockade of the antinociceptive effects of Δ9-THC by THCV [2]: blocked the antinociceptive effects of Δ^9-THC
- blockade of the antinociceptive effects of Δ9-THC by THCV ([2]; listed as THC-V): significantly antagonized the antinociceptive effects
